Reference: ChEMBL document CHEMBL3421550, “Diphenylpyrazoles as replication protein a inhibitors” (ACS Med Chem Lett, 2015)

What was measured:
[1] = target: T1, Replication protein A 70 kDa DNA-binding subunit (Homo sapiens, UniProt P27694)
Description: Binding affinity to RPA70N protein (unknown origin) incubated for 1 hr using FITC-ATRIP/FITC-ATRIP2 peptide probe by fluorescence polarization anisotropy assay

[2] = target: T1, Replication protein A 70 kDa DNA-binding subunit; conditions: at 500 µM
Description: Displacement of FITC-ATRIP/FITC-ATRIP2 peptide probe from RPA70N protein (unknown origin) at 500 uM incubated for 1 hr by fluorescence polarization anisotropy assay

[3] = target: T1, Replication protein A 70 kDa DNA-binding subunit; assay: Binding affinity to RPA70N protein (unknown origin) by HSQC NMR-based titration method
[4] = Intrinsic permeability in human Caco2 cells; type: ADME, cell-based; conditions: Caco-2, read-out: permeability

T1 sequence (P27694 whole entry): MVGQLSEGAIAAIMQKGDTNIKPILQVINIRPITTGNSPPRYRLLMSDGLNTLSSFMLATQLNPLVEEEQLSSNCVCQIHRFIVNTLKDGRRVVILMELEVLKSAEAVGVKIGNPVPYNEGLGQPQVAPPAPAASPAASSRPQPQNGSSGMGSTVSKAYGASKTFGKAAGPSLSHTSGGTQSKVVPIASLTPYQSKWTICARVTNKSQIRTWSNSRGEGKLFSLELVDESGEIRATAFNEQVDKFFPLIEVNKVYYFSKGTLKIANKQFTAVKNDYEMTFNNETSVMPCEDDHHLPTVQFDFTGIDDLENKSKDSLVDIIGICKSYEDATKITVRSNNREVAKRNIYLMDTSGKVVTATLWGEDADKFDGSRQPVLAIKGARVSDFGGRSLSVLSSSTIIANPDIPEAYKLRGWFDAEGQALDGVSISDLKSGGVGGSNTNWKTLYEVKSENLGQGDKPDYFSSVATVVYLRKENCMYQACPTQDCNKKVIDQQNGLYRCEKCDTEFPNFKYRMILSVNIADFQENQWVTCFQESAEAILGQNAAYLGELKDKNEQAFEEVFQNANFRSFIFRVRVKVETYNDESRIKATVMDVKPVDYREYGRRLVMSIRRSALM

Structure (SMILES)	Kd [1] [µM]	other results
NS(=O)(=O)c1ccc(C(=S)NCc2ccc(-c3cc(C(=O)O)nn3-c3ccc(Cl)c(Cl)c3)cc2)cc1	34	–
O=C(O)c1cc(Cc2ccc(O)cc2)n(-c2ccc(Cl)c(Cl)c2)n1	> 500	–
Cc1cccc(-c2cc(C(=O)O)nn2-c2ccc(Cl)c(Cl)c2)c1	90	–
O=C(O)c1cc(-c2ccc(CNC(=S)c3ccc(-c4nnn[nH]4)cc3)cc2)n(-c2ccc(Cl)c(Cl)c2)n1	2.2	–
O=C(O)c1cc(-c2ccc(CNS(=O)(=O)c3ccc(OC(F)(F)F)cc3)cc2)n(-c2ccc(Cl)c(Cl)c2)n1	56	–
O=C(O)c1cc(-c2ccco2)n(-c2ccc(Cl)c(Cl)c2)n1	> 500	–
COc1ccc(-c2cc(C(=O)O)nn2-c2ccc(Cl)cc2)cc1	> 500	inhibition [2]: 19%
COc1ccc(-c2cc(C(=O)O)nn2-c2ccc(Br)cc2)cc1	> 500	inhibition [2]: 24%
Cc1cccc(-n2nc(C(=O)O)cc2-c2ccccc2)c1	> 500	Kd [3]: 580 µM
O=C(O)c1ccc(-c2cc(C(=O)O)nn2-c2ccc(Cl)c(Cl)c2)cc1	59	–
O=C(O)c1cc(-c2ccccc2)n(-c2ccc(Cl)c(Cl)c2)n1	123	–
COc1ccc(-c2cc(C(=O)O)nn2-c2cccc(Br)c2)cc1	140	–
Nc1ccc(-c2cc(C(=O)O)nn2-c2ccc(Cl)c(Cl)c2)cc1	227	–
COc1ccc(-c2cc(C(=O)O)nn2-c2ccc(C)cc2)cc1	> 500	inhibition [2]: 15%
NCc1ccc(-c2cc(C(=O)O)nn2-c2ccc(Cl)c(Cl)c2)cc1	> 500	–
COc1ccc(-n2nc(C(=O)O)cc2-c2ccccc2)cc1	> 500	Kd [3]: 895 µM; inhibition [2]: 18%
O=C(O)c1cc(-c2ccccc2)n(-c2ccccc2)n1	–	Kd [3]: 1150 µM
COc1ccc(-c2cc(C(=O)O)nn2-c2ccc(Cl)c(Cl)c2)cc1	79	–
O=C(O)c1cc(-c2ccc(O)cc2)n(-c2ccc(Cl)c(Cl)c2)n1	104	–
N#Cc1ccc(-c2cc(C(=O)O)nn2-c2ccc(Cl)c(Cl)c2)cc1	310	–
COc1ccc(-c2cc(C(=O)O)nn2C2CCCCC2)cc1	> 500	inhibition [2]: 9%
Cc1ccc(-c2cc(C(=O)O)nn2-c2ccc(Cl)c(Cl)c2)cc1	72	–
O=C(O)c1cc(-c2ccc(Cl)cc2)n(-c2ccc(Cl)c(Cl)c2)n1	67	Kd [3]: 54 µM
COc1ccc(-c2cc(C(=O)O)nn2-c2cccc(C)c2)cc1	> 500	inhibition [2]: 20%
COc1ccc(-c2cc(C(=O)O)nn2-c2cccc(Cl)c2)cc1	> 500	inhibition [2]: 35%

Further lines, with some results ahead:

Kd [1] [µM]	Structure (SMILES)	other results
90	O=C(NCc1ccc(-c2cc(C(=O)O)nn2-c2ccc(Cl)c(Cl)c2)cc1)c1ccccc1	–
23	COc1ccc(CNC(=S)c2ccc(-c3cc(C(=O)O)nn3-c3ccc(Cl)c(Cl)c3)cc2)cc1	–
70	O=C(O)c1cc(-c2ccc(CNS(=O)(=O)c3ccccc3)cc2)n(-c2ccc(Cl)c(Cl)c2)n1	–
83	O=C(NCc1ccccc1)c1ccc(-c2cc(C(=O)O)nn2-c2ccc(Cl)c(Cl)c2)cc1	–
15	O=C(O)c1cc(-c2ccc(CNC(=S)c3ccc(Br)cc3)cc2)n(-c2ccc(Cl)c(Cl)c2)n1	–
0.54	O=C(O)c1cc(-c2ccc(CN3CCc4cc(-c5ccc(C(=O)O)o5)ccc4C3=S)cc2)n(-c2ccc(Cl)c(Cl)c2)n1	–
0.55	O=C(O)c1cc(-c2ccc(CNC(=S)c3ccc(-c4ccc(C(=O)O)o4)cc3)cc2)n(-c2ccc(Cl)c(Cl)c2)n1	–
22	O=C(NCc1ccc(-c2ccc(C(=O)O)o2)cc1)c1cccc(-c2cc(C(=O)O)nn2-c2ccc(Cl)c(Cl)c2)c1	–
18	O=C(O)c1cc(-c2ccc(C(=S)NCc3ccccc3)cc2)n(-c2ccc(Cl)c(Cl)c2)n1	–
9.4	O=C(NCc1ccc(-c2ccc(C(=O)O)o2)cc1Cl)c1ccc(-c2cc(C(=O)O)nn2-c2ccc(Cl)c(Cl)c2)cc1	–
1.7	O=C(O)c1ccc(-c2ccc(C(=S)NCc3ccc(-c4ccnn4-c4ccc(Cl)c(Cl)c4)cc3)c(Cl)c2)o1	Papp [4]: 14.5 ×10⁻⁶ cm/s
35	O=C(NCc1ccc(-c2cc(C(=O)O)nn2-c2ccc(Cl)c(Cl)c2)cc1)c1ccc(Br)cc1	–
72	COc1ccc(C(=O)NCc2ccc(-c3cc(C(=O)O)nn3-c3ccc(Cl)c(Cl)c3)cc2)cc1	–
0.48	O=C(O)c1cc(-c2ccc(C(=S)NCc3ccc(-c4ccc(C(=O)O)o4)cc3Cl)cc2)n(-c2ccc(Cl)c(Cl)c2)n1	–
8.2	CC(=O)N(Cc1ccc(-c2ccc(C(=O)O)o2)cc1)Cc1cccc(-c2cc(C(=O)O)nn2-c2ccc(Cl)c(Cl)c2)c1	–
129	O=C(O)c1cccc(-c2cc(C(=O)O)nn2-c2ccc(Cl)c(Cl)c2)c1	–
2.5	O=C(O)c1cc(-c2ccc(C(=S)NCc3cccc(-c4ccc(C(=O)O)o4)c3)cc2)n(-c2ccc(Cl)c(Cl)c2)n1	–
9.3	O=C(O)c1cc(-c2ccc(CNC(=S)c3ccc(-c4nc(=O)o[nH]4)cc3)cc2)n(-c2ccc(Cl)c(Cl)c2)n1	–
1.5	O=C(O)c1cc(-c2ccc(C(=S)NCc3ccc(-c4ccc(C(=O)O)o4)cc3)cc2)n(-c2ccc(Cl)c(Cl)c2)n1	–
45	COc1ccc(CNC(=O)c2ccc(-c3cc(C(=O)O)nn3-c3ccc(Cl)c(Cl)c3)cc2)cc1	–
57	O=C(O)c1cc(-c2cccc(CNCc3ccc(-c4ccc(C(=O)O)o4)cc3)c2)n(-c2ccc(Cl)c(Cl)c2)n1	–
